Measured values as given in PubChem BioAssay AID248 (DTP/NCI, 2004).
Several values for one entry are separate records, joined by “and”; a condition that tells them apart may be missing. Equal entries are not always repeated. Toxic doses and inconclusive results are not listed. No stated cut-off is given here; in the data, active means T/C of 150% or more; inactive means T/C below 125%.

Tested on: L1210 leukemia ip in BDF1 mice, survival T/C
Assay: NCI In Vivo Anticancer Drug Screen. Data for tumor model L1210 Leukemia (intraperitoneal) in B6D2F1 (BDF1) mice
Settings: endpoint: mean survival time, higher = longer survival
In short: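 Value reflects the ratio of survival in compound-treated mice to survival in vehicle-treated controls, with both groups carrying the same transplanted tumor.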

[1] = dose: 100.0 mg/kg/injection, schedule: Q04DX003 (ip), vehicle: Klucel (hydroxypropylcellulose) (HPC)
[2] = dose: 200.0 mg/kg/injection, schedule: Q04DX003 (ip), vehicle: Klucel (hydroxypropylcellulose) (HPC)
[3] = dose: 400.0 mg/kg/injection, schedule: Q04DX003 (ip), vehicle: Klucel (hydroxypropylcellulose) (HPC)
[4] = dose: 100.0 mg/kg/injection, schedule: Q01DX001 (ip), vehicle: saline
[5] = dose: 100.0 mg/kg/injection, schedule: Q01DX009 (ip), vehicle: saline with Tween-80
[6] = dose: 100.0 mg/kg/injection, schedule: Q04DX003 (ip), vehicle: saline with Tween-80
[7] = dose: 200.0 mg/kg/injection, schedule: Q01DX009 (ip), vehicle: saline with Tween-80
[8] = dose: 200.0 mg/kg/injection, schedule: Q04DX003 (ip), vehicle: saline with Tween-80
[9] = dose: 400.0 mg/kg/injection, schedule: Q01DX009 (ip), vehicle: saline with Tween-80
[10] = dose: 400.0 mg/kg/injection, schedule: Q04DX003 (ip), vehicle: saline with Tween-80
[11] = dose: 75.0 mg/kg/injection, schedule: Q01DX001 (ip), vehicle: carboxymethylcellulose (CMC)
[12] = dose: 100.0 mg/kg/injection, schedule: Q01DX009 (ip), vehicle: Klucel (hydroxypropylcellulose) (HPC)
[13] = dose: 200.0 mg/kg/injection, schedule: Q01DX009 (ip), vehicle: Klucel (hydroxypropylcellulose) (HPC)
[14] = dose: 400.0 mg/kg/injection, schedule: Q01DX009 (ip), vehicle: Klucel (hydroxypropylcellulose) (HPC)

Measured: T/C

Nc1ccnc(SCc2ccc(Cl)cc2)n1
inactive: dose: 100.0 mg/kg/injection, schedule: Q04DX003 (ip), vehicle: gum acacia 105 % of control | dose: 200.0 mg/kg/injection, schedule: Q04DX003 (ip), vehicle: gum acacia 104 % of control | dose: 400.0 mg/kg/injection, schedule: Q04DX003 (ip), vehicle: gum acacia 98 % of control

CCOC(=O)c1[nH]c2ccsc2c1CN(C)C
inactive: [1] 102 % of control | [2] 91 % of control | [3] 97 % of control

c1ccc2c(c1)C[N+](=C1CCCCC1)C2
inactive: dose: 75.0 mg/kg/injection, schedule: Q01DX009 (ip), vehicle: saline 91 % of control | [4] 93 % of control | dose: 150.0 mg/kg/injection, schedule: Q01DX009 (ip), vehicle: saline 88 % of control | dose: 200.0 mg/kg/injection, schedule: Q01DX001 (ip), vehicle: saline 97 % of control | dose: 300.0 mg/kg/injection, schedule: Q01DX009 (ip), vehicle: saline 91 % of control | dose: 400.0 mg/kg/injection, schedule: Q01DX001 (ip), vehicle: saline 98 % of control

CC(C)=CCC/C(C)=C/CN1C(=O)c2ccccc2C1=O
inactive: [5] 103 % of control | [6] 93 % of control | [7] 106 % of control | [8] 102 % of control | [9] 95 % of control | [10] 96 % of control

CC1=C(/C=C/C(C)=C/C=C/C(C)=C/C=O)C(C)(C)CCC1
inactive: dose: 50.0 mg/kg/injection, schedule: Q01DX009 (ip), vehicle: steriod suspending solution 89 % of control and 95 % of control | dose: 100.0 mg/kg/injection, schedule: Q01DX009 (ip), vehicle: steriod suspending solution 92 % of control | dose: 200.0 mg/kg/injection, schedule: Q01DX001 (sc), vehicle: steriod suspending solution 96 % of control and 95 % of control | dose: 400.0 mg/kg/injection, schedule: Q01DX001 (sc), vehicle: steriod suspending solution 96 % of control

CCOC(=O)C(=O)C1C(=O)C(=O)C(c2ccccc2)C1=O (stereo not drawn)
inactive: [11] 104 % of control | dose: 150.0 mg/kg/injection, schedule: Q01DX001 (ip), vehicle: carboxymethylcellulose (CMC) 100 % of control | dose: 300.0 mg/kg/injection, schedule: Q01DX001 (ip), vehicle: carboxymethylcellulose (CMC) 105 % of control

CCC1(c2ccccc2)CCN(C)C1 (stereo not drawn)
inactive: [11] 93 % of control

CCCCn1c(C)nc2c(N)cc(C(F)(F)F)cc21
inactive: dose: 200.0 mg/kg/injection, schedule: Q01DX001 (ip), vehicle: Klucel (hydroxypropylcellulose) (HPC) 100 % of control | dose: 400.0 mg/kg/injection, schedule: Q01DX001 (ip), vehicle: Klucel (hydroxypropylcellulose) (HPC) 111 % of control

CC(NC(=O)Cc1ccccc1)C(=O)NN (stereo not drawn)
inactive: dose: 100.0 mg/kg/injection, schedule: Q01DX009 (ip), vehicle: saline 100 % of control | dose: 200.0 mg/kg/injection, schedule: Q01DX009 (ip), vehicle: saline 102 % of control | dose: 400.0 mg/kg/injection, schedule: Q01DX009 (ip), vehicle: saline 91 % of control

Nc1cccc2c1nc(NCCO)c1ccccc12
inactive: [1] 114 % of control | [2] 103 % of control | [3] 103 % of control

O=C(O)c1ccc[n+](Cc2ccccc2)c1
inactive: dose: 75.0 mg/kg/injection, schedule: Q04DX003 (ip), vehicle: saline 90 % of control | dose: 150.0 mg/kg/injection, schedule: Q04DX003 (ip), vehicle: saline 97 % of control | dose: 300.0 mg/kg/injection, schedule: Q04DX003 (ip), vehicle: saline 94 % of control

Cc1ccc(C(=O)/C=C/c2cccc3ccccc23)cc1
inactive: [5] 102 % of control | dose: 100.0 mg/kg/injection, schedule: Q04DX002 (ip), vehicle: saline with Tween-80 97 % of control | [7] 96 % of control | dose: 200.0 mg/kg/injection, schedule: Q04DX002 (ip), vehicle: saline with Tween-80 97 % of control | [9] 96 % of control | dose: 400.0 mg/kg/injection, schedule: Q04DX002 (ip), vehicle: saline with Tween-80 94 % of control

CCC(Br)C(Br)CC(Br)C(Br)CC(Br)C(Br)CCCCCCCC(=O)O (stereo not drawn)
inactive: [12] 96 % of control | [1] 98 % of control | [13] 88 % of control | [2] 89 % of control | [14] 88 % of control | [3] 92 % of control

CCc1ccc(NC(=O)NCCCl)cc1
inactive: dose: 50.0 mg/kg/injection, schedule: Q01DX009 (ip), vehicle: Klucel (hydroxypropylcellulose) (HPC) 89 % of control | dose: 100.0 mg/kg/injection, schedule: Q01DX001 (ip), vehicle: carboxymethylcellulose (CMC) 87 % of control | [12] 89 % of control | dose: 100.0 mg/kg/injection, schedule: Q04DX002 (ip), vehicle: Klucel (hydroxypropylcellulose) (HPC) 105 % of control | dose: 200.0 mg/kg/injection, schedule: Q01DX001 (ip), vehicle: carboxymethylcellulose (CMC) 106 % of control | [13] 92 % of control | dose: 200.0 mg/kg/injection, schedule: Q04DX002 (ip), vehicle: Klucel (hydroxypropylcellulose) (HPC) 113 % of control | dose: 400.0 mg/kg/injection, schedule: Q01DX001 (ip), vehicle: carboxymethylcellulose (CMC) 106 % of control

CC(C)(C#N)N=NC(C)(C)C#N
inactive: dose: 25.0 mg/kg/injection, schedule: Q01DX009 (ip), vehicle: alcohol 96 % of control | dose: 50.0 mg/kg/injection, schedule: Q01DX009 (ip), vehicle: alcohol 96 % of control | dose: 50.0 mg/kg/injection, schedule: Q04DX003 (ip), vehicle: alcohol 98 % of control | dose: 100.0 mg/kg/injection, schedule: Q04DX003 (ip), vehicle: alcohol 95 % of control

CCOC(=O)c1ccccc1N(O)C(=O)NC12CC3CC(CC(C3)C1)C2
inactive: [6] 94 % of control | [8] 94 % of control | [10] 94 % of control

O=C(O)CCc1cc([N+](=O)[O-])c(O)c([N+](=O)[O-])c1
inactive: [6] 96 % of control | [8] 101 % of control | [10] 99 % of control

CNc1ncnc2nc(Cl)[nH]c12
inactive: [4] 108 % of control

NC(=O)c1cncc(C(N)=O)c1
inactive: dose: 100.0 mg/kg/injection, schedule: Q04DX002 (ip), vehicle: saline 103 % of control | dose: 200.0 mg/kg/injection, schedule: Q04DX002 (ip), vehicle: saline 95 % of control | dose: 400.0 mg/kg/injection, schedule: Q04DX002 (ip), vehicle: saline 100 % of control

CCCCCCCCS.[Ni]
inactive: dose: 6.0 mg/kg/injection, schedule: Q01DX009 (ip), vehicle: Klucel (hydroxypropylcellulose) (HPC) 100 % of control | dose: 12.0 mg/kg/injection, schedule: Q01DX009 (ip), vehicle: Klucel (hydroxypropylcellulose) (HPC) 92 % of control | dose: 25.0 mg/kg/injection, schedule: Q01DX009 (ip), vehicle: Klucel (hydroxypropylcellulose) (HPC) 92 % of control | dose: 100.0 mg/kg/injection, schedule: Q04DX003 (ip), vehicle: saline 102 % of control

O=C(NCc1ccccc1Cl)Nc1ccccc1F
inactive: [12] 106 % of control | [13] 98 % of control | [14] 115 % of control
